Data as given in patent publication US20070021412A1, “Treatment of gastrointestinal dysfunction and related stress with an enantiomerically-pure (S) 2,3-benzodiazepine” (Vela Pharmaceuticals, Inc., priority 2003, published 2007).

What was measured:
[1] = test system: Gastrointestinal Propulsive Motility; experiment: Charcoal Meal Test (basal gastrointestinal propulsion); type: in vivo, rat; conditions: for % Inhibition (gastrointestinal propulsive motility): numbers in parentheses indicate % increase
Procedure: The charcoal meal test is a standard method for evaluating the effect of compounds on basal, nonstimulated propulsive motility of the stomach and small intestine. It is generally considered predictive of a compound's ability to inhibit or accelerate basal gastric propulsion in humans. In the test, usually performed in rats, nonactivated charcoal powder is administered by oral gavage. Sixty minutes after administration of the charcoal suspension, rats were sacrificed by CO2 inhalation, the stomach and small intestine were removed, and the distance between the pylorus and the furthest progression of the charcoal meal was measured and compared to the distance between the pylorus and the ileocecal junction. This model is especially sensitive to compounds with the ability to increase or decrease basal propulsive motor activity of the stomach and small intestine. It is therefore often used to predict the potential for compounds to exert antidiarrheal or anticonstipatory effects, as well as to predict the potential for compounds to produce diarrhea or constipation as a side-effect. Two charcoal meal test were performed in rats. In each study, (RS)-, (R)-and (S)-tofisopam were evaluated for their for their ability to increase or decrease the percent of the intestine traversed by a charcoal meal. Test compounds were administered 30 minutes prior to administration of the charcoal meal.

[2] = test system: visceral hypersensitivity, pain, and bloating induced by colonic distension; experiment: Visceral hypersensitivity, pain and bloating test (abdominal contractions after colonic distension and acetic acid); type: in vivo, rat; conditions: 32 mg/kg p.o.
Procedure: In yet another gastrointestinal disorder model, the visceral pain and bloating test, the ability of (R)- and (S)-tofisopam to inhibit abdominal contractions in the rat was investigated. (R)- and (S)-tofisopam were able to inhibit abdominal contractions to a greater extent than racemic tofisopam. The effects of (R)-tofisopam, (S)-tofisopam, and (RS)-tofisopam were evaluated for alleviating visceral hypersensitivity, pain, and bloating. […] Eur. J. Pharmacol. 324: 211-217 (1997); Langlois et al. Eur. J. Pharmacol. 318: 141-144 (1996)). The acetic acid makes the colon hypersensitive, modeling the visceral hypersensitivity seen in IBS. The colonic distension models the pain and bloating seen in IBS, and causes abdominal contractions in rats. In the control group 13.8±2.0 abdominal contractions were measured over the 10-minute period of observation.

[3] = test system: stress-induced ulcer formation; experiment: Water immersion stress-induced ulcers test; type: in vivo, rat; conditions: for Ulceration Index: ulcer score × percentage of stomachs showing ulcers; for Score for the Presence of Ulcers Mean ± SEM: score 0-4, N = 8
[4] = test system: Colonic Propulsive Motility; experiment: Glass Bead Test (stretch-stimulated colonic propulsion); type: in vivo, mouse; conditions: for Expulsion Time Mean ± SEM: 30 minutes before bead, cutoff 30 minutes, in min
Procedure: In the test, usually performed in mice, a 3-mm glass bead is inserted through the anus into the distal colon (using a glass rod) to a depth of 2 cm. The time to expel the glass bead is then measured; normally, the glass bead is expelled in approximately 10 minutes. This model is especially sensitive to compounds with inhibitory effects on stretch-stimulated propulsive motor activity; as such, it is often used as an animal model for IBS. A test compound that inhibits stretch-stimulated-colonic propulsive motility may be used to treat gastrointestinal dysfunction, including IBS. Both enantiomerically-pure (R)- and (S)-tofisopam inhibited propulsive motility to a greater extent than the racemate.
The glass bead test is commmonly used to evaluate the ability of compounds to affect stimulated colonic propulsion. In the test, usually performed in mice, a 3-mm glass bead is inserted through the anus into the distal colon (using a glass rod) to a depth of 2 cm. The time to expel the glass bead is then measured; normally, the glass bead is expelled in approximately 10 minutes. This model is especially sensitive to compounds with inhibitory effects on stretch-stimulated propulsive motor activity; as such, it is often used as an animal model for IBS.
In each study, (RS)-, (R)- and (S)-tofisopam were evaluated for their ability to increase or decrease the time for expulsion of the glass bead. Test compounds were administered 30 minutes prior to insertion of the bead, and a maximum time cutoff of 30 minutes to expulsion was used.

`CC[C@@H]1C(C)=NN=C(c2ccc(OC)c(OC)c2)c2cc(OC)c(OC)cc21` [(S)-tofisopam, (S)-1-(3,4-dimethoxyphenyl)-4-methyl-5-ethyl-7,8-dimethoxy-5H-2,3-benzodiazepine] was tested, and the “% Intestine Traversed, Mean ± SEM” value ([1]; first experiment, 64 mg/kg IP) was 75.7 ± 3.1%, the “% Inhibition (gastrointestinal propulsive motility)” value ([1]; first experiment, 64 mg/kg IP) was 7.1% and the “% Intestine Traversed, Mean ± SEM” value ([1]; second experiment, 4 mg/kg IP) was 79.1 ± 1.3%. The “% Intestine Traversed, Mean ± SEM” value ([1]; second experiment, 8 mg/kg IP) was 80.9 ± 1.9%, the “% Intestine Traversed, Mean ± SEM” value ([1]; second experiment, 16 mg/kg IP) was 73.3 ± 1.2% and the “% Inhibition (gastrointestinal propulsive motility)” value ([1]; second experiment, 16 mg/kg IP) was 1.9%. The “% Intestine Traversed, Mean ± SEM” value ([1]; second experiment, 32 mg/kg IP) was 60.8 ± 2.8 %, the “% Inhibition (gastrointestinal propulsive motility)” value ([1]; second experiment, 32 mg/kg IP) was 19.7% and the “number of abdominal cramps” value ([2]; vehicle control 18.8±1.8 cramps) was 10.4±1.3 cramps. For the same compound, the “decrease of abdominal cramps” value ([2]; versus vehicle control) was 45%, the “Ulceration Index” value ([3]; 16 mg/kg IP) was 313 and the “% of Stomachs Showing Ulcers” value ([3]; 32 mg/kg IP) was 38%. For the same compound, the “Score for the Presence of Ulcers Mean ± SEM” value ([3]; 32 mg/kg IP) was 1.1 ± 0.4, the “Ulceration Index” value ([3]; 32 mg/kg IP) was 42 and the “% of Stomachs Showing Ulcers” value ([3]; 64 mg/kg IP) was 38%. The “Score for the Presence of Ulcers Mean ± SEM” value ([3]; 64 mg/kg IP) was 1.3 ± 0.3, the “Ulceration Index” value ([3]; 64 mg/kg IP) was 47 and the “% Inhibition (colonic expulsion)” value ([4]; 32 mg/kg IP) was 100%. The “Expulsion Time Mean ± SEM” value ([4]; 32 mg/kg IP) was 30.0 ± 0.0, the “% Inhibition (colonic expulsion)” value ([4]; 64 mg/kg IP) was 100% and the “Expulsion Time Mean ± SEM” value ([4]; 64 mg/kg IP) was 30.0 ± 0.0.
